Laboratory results: patent US20230303623A1, “PEPTIDES AND METHODS OF USE” (REALTA LIFE SCIENCES, INC., priority 2020, published 2023)

System: antibody-initiated complement activation (lysis of AB human red blood cells by type O serum)
Experiment: ABO incompatibility hemolytic complement assay (CH50-type)
Type: cell-based
Conditions: peptides 0.8 mg/ml (~0.5 mM), compared to parent peptide
Procedure: FIG. 1A-1B show PIC1 peptides' inhibition of complement activation in an ABO incompatibility assay. […] Inhibition of ABO incompatibility hemolysis in a CH50-type assay. Peptides are at a final concentration of 0.5 mM. Values are represented as a percent of the positive control, which consists of human 0 sera and AB red blood cells in GVBS^++ buffer. Data are the means of n=3 independent experiments±SEM.
For hemolytic complement assays, human red blood cells (RBCs) from type AB donors were purified, washed, and standardized to 1.0×10^9 cells/ml, as previously described. Human sera from type 0 donors at a 15% final concentration was combined with 0.5 mM of the peptides and the volume was brought up to 0.2 ml with GVBS^++ and 5.0×10^7 RBCs. The samples were incubated for 1 hour at 37° C. and then spun at 3,000 rpm for 5 minutes and the supernatant was collected and read at 412 nm. Values are represented as a percent of the positive control, which consists of human 0 sera and AB red blood cells in GVBS^++ buffer.
To assess the extent to which the peptide variants inhibit antibody-initiated complement activation, an ABO incompatibility ex vivo assay was utilized in which purified erythrocytes from a ‘type AB+’ donor are incubated with sera from a ‘type 0’ subject containing anti-A and anti-B antibodies. Peptides were tested at a concentration of 0.8 mg/ml (˜0.5 mM).

Substance: IAdLILEP(Sar)CCQERAA (IALILEPXCCQERAA; D-Leu; sarcosine; MOD_RES (3)..(3) D-amino acid; MOD_RES (8)..(8) Sarcosine) [PA-0122]
- inhibition of ABO incompatible hemolysis (complement inhibition), in words: greater extent
- inhibition of ABO incompatible hemolysis (complement inhibition), in words (listed as RLS-0122): potently block complement activation
